Data from publication PMC2898572 (Journal of neurochemistry, 2009).
pKi: −log10 of the molar value. Where “and” joins values, the source holds several entries; their conditions need not be identical. Identical values can stand only once.

How the values were obtained:
[1] = molecular target: rat PEPT2; conditions: read-out: Ki (PEPT2 inhibitor); LLC-PK1 cells stably transfected with rat PEPT2; ref Terada et al. 2000; cited from earlier work
[2] = system: wild-type and Pept2 null mice; assay: Hot-plate test; assay type: in vivo; conditions: for ED50: icv
[3] = system: opioid peptide transport system; conditions: SK-N-SH cells; ref Thakker et al. 2008; cited from earlier work
[4] = system: PEPT2; conditions: rat choroid plexus; concentrations 1,000 times in excess; ref Teuscher et al. 2001; cited from earlier work

Row | Molecule | pKi [1] | effect on the MPE of L-KTP ([2]; bestatin 160 nmol icv with 4 nmol L-KTP, Pept2 null mice, p=0.2931) | stimulation of opioid peptide transport system [3] | effect on the uptake of GlySar [4] | maximum analgesia ([2]; 100 nmol icv, both genotypes) | duration of response to 100 nmol dose ([2]; 100 nmol icv, both genotypes, 40 min experiment) | ED50 ([2]; Pept2 null mice, response at 5 min, estimate ± standard error) | time of maximum analgesia ([2]; after icv injection, both genotypes) | ED50 ([2]; both genotypes (wild-type and Pept2 null)) | ED50 ([2]; wild-type mice, response at 5 min, estimate ± standard error) | difference in ED50 between genotypes ([2]; wild-type vs Pept2 null)
1 | CC(C)C[C@H](NC(=O)[C@@H](O)[C@H](N)Cc1ccccc1)C(=O)O [bestatin] | 4.74 | little effect |  |  |  |  |  |  |  |  | 
2 | L-Tyr-D-Arg [D-KTP] |  |  | little stimulation | no effect | 100 % MPE | fully analgesic throughout the 40 min experiment | 9.1 ± 0.8 nmol | 5 min | 9 to 10 nmol | 10.3 nmol and 10.3 ± 1.0 nmol | ~ 10%
